1 compound from US6969721B2, “Tricyclic-2-pyridone compounds useful as HIV reverse transcriptase inhibitors” (Bristol-Myers Squibb Pharma, priority 2000, dated 2005) can be followed below.

Values after ≈ are worked out from the molar mass of the structure shown.

For this test, the system named is HIV-1 (RF). The test can be described thus: HIV RNA assay, microplate based compound evaluation in HIV-1 infected MT-2 cells. It is filed as cell-based. As to conditions: Human immunodeficiency virus 1, MT2, 72 h; HIV-1 (RF) in MT-2 cells, 3 days culture; virus dilutions selected to give this value; read-out: IC90 value (concentration of compound required to reduce the HIV RNA level by 90%). As for the experimental part: MT-2 and MT-4 cells were maintained in RPMI 1640 supplemented with 5% fetal calf serum (FCS) for MT-2 cells or 10% FCS for MT-4 cells, 2 mM L-glutamine and 50 μg/mL gentamycin, all from Gibco. HIV-1 RF was propagated in MT-4 cells in the same medium. Virus stocks were prepared approximately 10 days after acute infection of MT-4 cells and stored as aliquots at −70° C. Infectious titers of HIV-1(RF) stocks were 1-3×10^7 PFU (plaque forming units)/mL as measured by plaque assay on MT-2 cells (see below) Each aliquot of virus stock used for infection was thawed only once.
For evaluation of antiviral efficacy, cells to be infected were subcultured one day prior to infection. […]
Cell lysates or purified RNA in 3 M or 5 M GED were mixed with 5 M GED and capture probe to a final guanidinium isothiocyanate concentration of 3 M and a final biotin oligonucleotide concentration of 30 nM. […] Immobilized alkaline phosphatase activity was detected by addition of 100 μL of 0.2 mM 4-methylumbelliferyl phosphate (MUBP, JBL Scientific) in buffer (2.5 M diethanolamine pH 8.9 (JBL Scientific), 10 MM MgCl2, 5 mM zinc acetate dihydrate and 5 mM N-hydroxyethyl-ethylene-diamine-triacetic acid). […] Fluorescence at […] was measured using a microplate fluorometer (Dynateck) exciting at […]. […]

For the compound `Nc1ccn([C@H]2CC[C@@H](CO)O2)c(=O)n1` [ddC, 2′,3′-dideoxycytidine], the IC90 stood at 0.2 µg/mL (≈ 0.947 µM).
